Values joined by “and” are separate entries in the source; they are usually repeats but may differ in a detail not shown here. Equal entries are not always repeated. Inconclusive results and toxic doses are left out. No stated cut-off is given here; in the data, active means T/C of 150% or more; inactive means T/C below 125%.
System: L1210 leukemia ip in BDF1 mice, survival T/C
Assay: NCI In Vivo Anticancer Drug Screen. Data for tumor model L1210 Leukemia (intraperitoneal) in B6D2F1 (BDF1) mice
Details: endpoint: mean survival time, higher = longer survival
Outline: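 Tumor was transplanted into mice, which were then dosed with test compound or vehicle alone. Survival was recorded for each group, and the treated figure was expressed relative to the control figure.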

[1] = dose: 100.0 mg/kg/injection, schedule: Q01DX009 (ip), vehicle: saline
[2] = dose: 200.0 mg/kg/injection, schedule: Q01DX009 (ip), vehicle: saline
[3] = dose: 400.0 mg/kg/injection, schedule: Q01DX009 (ip), vehicle: saline
[4] = dose: 100.0 mg/kg/injection, schedule: Q01DX001 (ip), vehicle: Klucel (hydroxypropylcellulose) (HPC)
[5] = dose: 200.0 mg/kg/injection, schedule: Q01DX001 (ip), vehicle: Klucel (hydroxypropylcellulose) (HPC)
[6] = dose: 50.0 mg/kg/injection, schedule: Q01DX009 (ip), vehicle: saline with Tween-80
[7] = dose: 100.0 mg/kg/injection, schedule: Q01DX009 (ip), vehicle: saline with Tween-80
[8] = dose: 100.0 mg/kg/injection, schedule: Q04DX003 (ip), vehicle: saline with Tween-80
[9] = dose: 200.0 mg/kg/injection, schedule: Q01DX009 (ip), vehicle: saline with Tween-80
[10] = dose: 200.0 mg/kg/injection, schedule: Q04DX003 (ip), vehicle: saline with Tween-80
[11] = dose: 100.0 mg/kg/injection, schedule: Q01DX009 (ip), vehicle: Klucel (hydroxypropylcellulose) (HPC)
[12] = dose: 200.0 mg/kg/injection, schedule: Q01DX009 (ip), vehicle: Klucel (hydroxypropylcellulose) (HPC)
[13] = dose: 400.0 mg/kg/injection, schedule: Q01DX009 (ip), vehicle: Klucel (hydroxypropylcellulose) (HPC)
[14] = dose: 400.0 mg/kg/injection, schedule: Q01DX001 (ip), vehicle: Klucel (hydroxypropylcellulose) (HPC)
[15] = dose: 50.0 mg/kg/injection, schedule: Q01DX009 (ip), vehicle: Klucel (hydroxypropylcellulose) (HPC)
[16] = dose: 100.0 mg/kg/injection, schedule: Q01DX001 (ip), vehicle: saline
[17] = dose: 200.0 mg/kg/injection, schedule: Q01DX001 (ip), vehicle: saline
[18] = dose: 400.0 mg/kg/injection, schedule: Q01DX001 (ip), vehicle: saline
[19] = dose: 100.0 mg/kg/injection, schedule: Q04DX003 (ip), vehicle: Klucel (hydroxypropylcellulose) (HPC)
[20] = dose: 200.0 mg/kg/injection, schedule: Q04DX003 (ip), vehicle: Klucel (hydroxypropylcellulose) (HPC)
[21] = dose: 400.0 mg/kg/injection, schedule: Q04DX003 (ip), vehicle: Klucel (hydroxypropylcellulose) (HPC)

Measured: T/C

Cc1cc(NC(=O)NCc2ccc(N3C(N)=NC(N)=NC3(C)C)cc2)ccc1S(=O)(=O)F
inactive: dose: 50.0 mg/kg/injection, schedule: Q01DX009 (ip), vehicle: saline 102 % of control | [1] 119 % of control | [2] 107 % of control | [3] 114 % of control

COc1ccccc1-n1c(O)c(N=Nc2ccc(Br)cc2)c(=O)n(-c2ccc(Cl)cc2)c1=S
inactive: [4] 101 % of control | [5] 107 % of control

O=C(CC(O)(C(F)(F)Cl)C(F)(F)Cl)c1ccco1
inactive: [6] 98 % of control | [7] 98 % of control | [8] 103 % of control | [9] 95 % of control | [10] 90 % of control

N#Cc1c(SCC(=O)O)nsc1SCC(=O)O
inactive: dose: 100.0 mg/kg/injection, schedule: Q04DX002 (ip), vehicle: gum acacia 97 % of control | dose: 200.0 mg/kg/injection, schedule: Q04DX002 (ip), vehicle: gum acacia 94 % of control | dose: 400.0 mg/kg/injection, schedule: Q04DX002 (ip), vehicle: gum acacia 100 % of control

Cc1cc(=O)[nH]c(NC(C)C(=O)O)n1 (stereo not given)
inactive: dose: 12.5 mg/kg/injection, schedule: Q04DX003 (ip), vehicle: saline 101 % of control | dose: 25.0 mg/kg/injection, schedule: Q04DX003 (ip), vehicle: saline 101 % of control | dose: 50.0 mg/kg/injection, schedule: Q04DX003 (ip), vehicle: saline 101 % of control

CC(=O)Nc1ccc(/C=N\NC(=S)Nc2ccccc2)cc1
inactive: [11] 107 % of control | [12] 93 % of control | [13] 94 % of control

CC1(C)c2ccccc2C(=O)/C(=C/c2ccccc2)C1NC1CCCCC1 (stereo not given)
inactive: [4] 95 % of control | [11] 102 % of control | [5] 93 % of control | [12] 96 % of control | [14] 92 % of control | [13] 106 % of control

NC(N)=N/N=C(\CBr)c1ccc([N+](=O)[O-])cc1
inactive: dose: 15.0 mg/kg/injection, schedule: Q01DX Z (ip), vehicle: carboxymethylcellulose (CMC) 97 % of control | dose: 30.0 mg/kg/injection, schedule: Q01DX Z (ip), vehicle: carboxymethylcellulose (CMC) 92 % of control | dose: 30.0 mg/kg/injection, schedule: Q01DX Z (oral), vehicle: carboxymethylcellulose (CMC) 100 % of control | dose: 60.0 mg/kg/injection, schedule: Q01DX Z (ip), vehicle: carboxymethylcellulose (CMC) 98 % of control and 91 % of control | dose: 60.0 mg/kg/injection, schedule: Q01DX Z (oral), vehicle: carboxymethylcellulose (CMC) 103 % of control | dose: 120.0 mg/kg/injection, schedule: Q01DX Z (ip), vehicle: carboxymethylcellulose (CMC) 92 % of control | dose: 120.0 mg/kg/injection, schedule: Q01DX Z (oral), vehicle: carboxymethylcellulose (CMC) 102 % of control | dose: 240.0 mg/kg/injection, schedule: Q01DX Z (oral), vehicle: carboxymethylcellulose (CMC) 92 % of control

COc1ccc(CN(CCc2ccc(O)cc2)C(=O)C(F)(F)F)cc1O
inactive: [4] 91 % of control | [5] 89 % of control | [14] 87 % of control

Cc1cc(C(=O)O)c(C)n1-c1ccccc1C(=O)O
inactive: [15] 102 % of control | [4] 103 % of control | [11] 89 % of control | [5] 92 % of control | [12] 93 % of control | [14] 94 % of control

COc1ccc(C(=O)C/C(=N\N(C(=O)c2ccc(OC)cc2)c2ccccc2)c2ccc(OC)cc2)cc1
inactive: [6] 100 % of control | [7] 93 % of control | [9] 98 % of control

O=C(Nc1ccc([N+](=O)[O-])cc1Cl)N(CC(O)c1ccccc1)C1CCCCC1 (stereo not given)
inactive: [1] 90 % of control | dose: 100.0 mg/kg/injection, schedule: Q04DX003 (ip), vehicle: saline 108 % of control | [2] 95 % of control | dose: 200.0 mg/kg/injection, schedule: Q04DX003 (ip), vehicle: saline 102 % of control | [3] 96 % of control | dose: 400.0 mg/kg/injection, schedule: Q04DX003 (ip), vehicle: saline 100 % of control

O=C1c2ccccc2C(Br)(c2ccccc2)C1Br (stereo not given)
inactive: dose: 12.5 mg/kg/injection, schedule: Q01DX009 (ip), vehicle: other 93 % of control | dose: 25.0 mg/kg/injection, schedule: Q01DX009 (ip), vehicle: other 89 % of control

Cc1ccc(NC(=O)C(Cl)Cl)cc1Cl
inactive: [15] 103 % of control | [11] 107 % of control | [12] 98 % of control

CCOc1ccccc1C=C(C#N)C#N
inactive: dose: 100.0 mg/kg/injection, schedule: Q04DX002 (ip), vehicle: saline with Tween-80 100 % of control

Cc1ccc(S(=O)(=O)N(CCCc2c(C)nc(N)nc2Cl)c2ccccc2)cc1
inactive: [4] 86 % of control | [14] 93 % of control

CCC(C)C(CN)(CCCCN1CCOCC1)c1cccc2ccccc12 (stereo not given)
inactive: [8] 98 % of control | [10] 93 % of control

CSC(NC(=O)c1ccccc1)C(N)=O (stereo not given)
inactive: dose: 100.0 mg/kg/injection, schedule: Q04DX002 (ip), vehicle: Klucel (hydroxypropylcellulose) (HPC) 101 % of control | dose: 200.0 mg/kg/injection, schedule: Q04DX002 (ip), vehicle: Klucel (hydroxypropylcellulose) (HPC) 109 % of control | dose: 400.0 mg/kg/injection, schedule: Q04DX002 (ip), vehicle: Klucel (hydroxypropylcellulose) (HPC) 97 % of control

O=[N+]([O-])c1cc2cnn(CCl)c2cc1[N+](=O)[O-]
inactive: [16] 103 % of control | [17] 111 % of control | [18] 109 % of control

O=S1(=O)C=CCCC=C1
inactive: dose: 50.0 mg/kg/injection, schedule: Q04DX002 (ip), vehicle: Klucel (hydroxypropylcellulose) (HPC) 105 % of control | dose: 75.0 mg/kg/injection, schedule: Q04DX002 (ip), vehicle: Klucel (hydroxypropylcellulose) (HPC) 112 % of control

CC(C)(C)c1cc(C(=S)N2CCOCC2)cc(C(C)(C)C)c1O
inactive: [4] 103 % of control | [5] 100 % of control | [14] 86 % of control

CC1=CC(=O)N(CCl)C1=O
inactive: [8] 102 % of control | [10] 94 % of control

CCOC1=C(Br)C=CN(S(=O)(=O)c2ccc(C)cc2)c2ccccc21
inactive: [1] 97 % of control | [2] 94 % of control | [3] 93 % of control

Cc1ccc(C(c2ccc(C)c(C)c2)C(O)C(O)C(O)C(O)CO)cc1C (stereo not given)
inactive: [4] 92 % of control | [16] 87 % of control | [5] 100 % of control | [17] 91 % of control | [18] 89 % of control

COc1ccc(N=C(C(=Nc2ccc(OC)cc2)c2ccccc2)c2ccccc2)cc1
inactive: [11] 94 % of control | [19] 96 % of control | [12] 95 % of control | [20] 95 % of control | [13] 100 % of control | [21] 95 % of control

COc1cccc(CNc2cccc([N+](=O)[O-])c2)c1OC
inactive: [11] 95 % of control | [19] 102 % of control | [12] 97 % of control | [20] 96 % of control | [13] 95 % of control | [21] 95 % of control
